Assays:
Assay type in all cases: cell-based, human
[1] = tested on: β-catenin in A549, H23, and H292 cells; assay: Western blot of β-catenin; settings: 0–100 nM, 24 h
Method: (§1) The protein expression levels in NSCLC cells were assessed through Western blot analysis. A549, H23, and H292 cells were seeded at a density of 4 × 10^5 cells per well in 6-well cell culture plates. These cells were subjected to treatments with DH_32 at concentrations of 0, 25, 50, and 100 nM for 24 h at 37 °C.
(§2) Following treatment, the cells were collected using cold PBS and incubated on ice with a lysis buffer. The lysis buffer contained 50 mM 4-(2-hydroxyethyl)-1-piperazineethanesulfonic acid (pH 7.5), 150 mM NaCl, 5 mM EDTA, 1% Triton X-100, 1 mM phenylmethylsufonyl fluoride, and 2 μg/mL pepstatin A (cat no: 9803, Cell Signaling), along with complete protease inhibitor cocktail tablets provided in EASYpack (Roche, cat no: 04693116001). The incubation occurred for 40 min on ice, followed by centrifugation at 12,000× g at 4 °C for 15 min. Cell lysates were collected, and the protein content was quantified using the bicinchoninic acid (BCA) protein kit from Thermo-Fisher Scientific, Rockford, IL, USA. […] A chemiluminescent substrate (Supersignal West Pico; Pierce, Rockford, IL, USA) was applied to detect complex reactivity, and the signal intensity was quantified through densitometry. Protein intensity was analyzed by using ImageJ software (Image J 1.52a, Rasband, W., National Institutes of Health, Bethesda, MD, USA). […]

H23 cells [2] = assay: Western blot of apoptosis-related proteins (cleaved PARP, Bcl-2, Bax)
Method: as §1
(§3) Following treatment, the cells were collected using cold PBS and incubated on ice with a lysis buffer. The lysis buffer contained 50 mM 4-(2-hydroxyethyl)-1-piperazineethanesulfonic acid (pH 7.5), 150 mM NaCl, 5 mM EDTA, 1% Triton X-100, 1 mM phenylmethylsufonyl fluoride, and 2 μg/mL pepstatin A (cat no: 9803, Cell Signaling), along with complete protease inhibitor cocktail tablets provided in EASYpack (Roche, cat no: 04693116001). The incubation occurred for 40 min on ice, followed by centrifugation at 12,000× g at 4 °C for 15 min. Cell lysates were collected, and the protein content was quantified using the bicinchoninic acid (BCA) protein kit from Thermo-Fisher Scientific, Rockford, IL, USA. The sample was denatured by heating at 95 °C for 5 min with a sample buffer. The protein was loaded onto a 10% sodium dodecyl sulfate polyacrylamide gel electrophoresis (SDS-PAGE). Following gel separation, the proteins were transferred onto a nitrocellulose membrane with a pore size of 0.45 μm. The membranes were incubated with 5% nonfat dry milk in TBST (25 mm Tris-HCl, pH 7.4, 125 mm NaCl, and 0.05% Tween 20) for 1 h 30 min. Following this, the membrane was exposed to primary antibodies (Cell Signaling) including rabbit PARP, BcL2, Bax, CD133, CD44, OCT4, ALDH1A1, and β-catenin, and incubated at 4 °C overnight. Rabbit β-actin served as the control for loading normalization. The primary antibodies were diluted to 1:1000 in 5% w/v BSA in TBST. The membranes were washed with TBST and were then exposed to horseradish-peroxidase (HRP)-conjugated isotype-specific secondary antibodies, as well as anti-rabbit and anti-mouse IgG (1:2000 in 5% w/v skim milk in TBST), for 1 h at RT. Membranes were washed again with TBST. A chemiluminescent substrate (Supersignal West Pico; Pierce, Rockford, IL, USA) was applied to detect complex reactivity, and the signal intensity was quantified through densitometry. Protein intensity was analyzed by using ImageJ software (Image J 1.52a, Rasband, W., National Institutes of Health, Bethesda, MD, USA). RT acted as the positive control for this experiment.

H292 cells [3] = assay: as above
Method: as §1, §3

A549 cells [4] = assay: as above
Method: as §1, §3

H23 cells [5] = assay: RT-qPCR of stemness transcription factors; settings: H23, 6 h
Method: (§4) RNA extraction was performed on DH_32-treated cells (3 × 10^5 cells per well in 6-well plates) using GENEzol as the reagent. Total RNA was used to synthesize cDNA through the application of SuperScript III reverse transcriptase from Invitrogen. Following cDNA synthesis, 100 ng of the cDNA was utilized for RT-qPCR, employing Luna Universal qPCR Master Mix from NEB, UK, in a final volume of 20 µL. The reaction mixture was conducted using the CFX 96 real-time PCR system from Bio-Rad, located in Hercules, CA. For the RT-qPCR, the protocol included an initial denaturation step at 95 °C for 1 min, followed by 45 cycles involving denaturation at 95 °C for 10 s, annealing and extension at 60 °C for 30 s. Melting curve analysis was employed to assess the specificity of the primers. The targeted primer genes were: The gene expression levels were normalized using the GAPDH gene as an internal control. The relative mRNA gene expression level for each gene was determined based on the comparative Cq values. RT acted as the positive control for this experiment.

H292 cells [6] = assay: RT-qPCR of stemness transcription factors; settings: H292, 6 h
Method: as §4

A549 cells [7] = assay: RT-qPCR of stemness transcription factors; settings: A549, 50 nM, 6 h, normalized to GAPDH
Method: as §4

[8] = tested on: A549, H23, and H292 cells; assay: Western blot of CSC markers; settings: 25, 50, and 100 nM, 24 h
Method: as §1, §2

COC1=C(C)C(=O)C2=C(C1=O)[C@@H]1CN(Cc3ccc4ccccc4c3)[C@@H](C#N)[C@H](C2)N1C [DH_32, (1R,4R,5S)-9-methoxy-8,11-dimethyl-3-(naphthalen-2-ylmethyl)-7,10-dioxo-1,2,3,4,5,6,7,10-octahydro-1,5-epiminobenzo[d]azocine-4-carbonitrile]
β-catenin protein level by Western blot [1]: significant decrease in the β-catenin protein level
anti-apoptotic Bcl-2 protein level (H23 cells [2]; H23, 0–100 nM, 24 h): significant reduction in a dose-dependent manner
cleaved PARP level (H23 cells [2]; H23, 50 nM, 24 h): substantial increase
pro-apoptotic protein Bax level (H23 cells [2]; H23, 24 h): remained unaltered
anti-apoptotic Bcl-2 protein level (H292 cells [3]; H292, 0–100 nM, 24 h): significant reduction in a dose-dependent manner
cleaved PARP level (H292 cells [3]; H292, 50 nM, 24 h): substantial increase
pro-apoptotic protein Bax level (H292 cells [3]; H292, 24 h): remained unaltered
anti-apoptotic Bcl-2 protein level (A549 cells [4]; A549, 0–100 nM, 24 h): significant reduction in a dose-dependent manner
cleaved PARP level (A549 cells [4]; A549, 50 nM, 24 h, compared to the RT treatment): six-fold increase
pro-apoptotic protein Bax level (A549 cells [4]; A549, 24 h, compared to the parent compound): two-fold increase
mRNA of OCT4, NANOG, and SOX2 (H23 cells [5]): significantly decreased
mRNA of OCT4, NANOG, and SOX2 (H292 cells [6]): significantly decreased
mRNA expression level of NANOG (A549 cells [7]): 0.4 fold
mRNA expression level of OCT4 (A549 cells [7]): 0.5 fold
mRNA expression level of SOX2 (A549 cells [7]): 0.3 fold
CSC markers CD133, CD44, OCT4, and ALDH1A1 by western blot [8]: dramatic decrease
